According to article PMC11864979, “First-in-class ultralong-target-residence-time p38α inhibitors as a mitosis-targeted therapy for colorectal cancer” (Nature Cancer, 2025):
“And” between values parts separate entries of the source, which are not always exact repeats. Identical values can stand only once.

How the values were obtained:
[1] = system: KAP^2D cells; experiment: western blot analysis of p38α signaling in KAP^2D cells; assay type: cell-based, mouse; settings: 1 µM, 1 day
Protocol: Proteins were extracted from cells and organoids using radioimmunoprecipitation assay extraction buffer (50 mM Tris pH 8.0, 150 mM NaCl, 1% Triton X-100, 0.5% sodium deoxycholate, 0.1% SDS, 5 mM EDTA and 1 mM EGTA) supplemented with protease and phosphatase inhibitors (cOmplete and PhosSTOP, Roche). Protein concentrations were measured using the DC (detergent compatible) Protein Assay (Bio-Rad). Briefly, 20–30 µg of protein was separated by SDS–PAGE and transferred onto PVDF membranes (Immobilon-P, Millipore). Membranes were blocked in 5% BSA and Tris-buffered saline (TBS)–Tween buffer and then incubated with primary antibodies overnight at 4 °C and with horseradish peroxidase-conjugated secondary antibodies for 1 h at room temperature. All used antibodies and dilutions are listed in the Nature Portfolio Reporting Summary. The blots were visualized using the ChemiDoc MP Imaging System (BIO-RAD) and ImageLab version 5.2.1 software. Vinculin and β-actin were used as loading controls.

[2] = system: PDO5; experiment: cell viability in patient-derived CRC organoids PDO5; assay type: cell-based, human; settings: Fig. 3f, replicates
Protocol: (§1) For in vitro treatment studies, organoids were mechanically dissociated and digested using TrypLE supplemented with 100 µg ml^−1 DNaseI and 10.5 µM Y-27632 dihydrochloride (Invitrogen) at 37 °C. A total of 1,000–2,000 single cells were plated per well in white 96-well plates (Greiner) in culture medium containing 10% GFR Matrigel or Cultrex BME. The treatment with doxycycline (5 µg ml^−1), pharmacological inhibitors or corresponding volumes of DMSO was started 24 h after plating. Doxycycline was obtained from Sigma-Aldrich. […] Cell viability was measured by means of CellTiter-Glo 3D or CellTiter-Glo 2.0 reagent (Promega) according to the manufacturers’ instructions and the Infinite M Plex reader (Tecan, i-control version 3.9.1 software). Results were normalized to vehicle (DMSO) or to shNC. For cell-doubling assays, the cell number was quantified at the corresponding time points using Guava EasyCyte flow cytometer (Luminex, CytoSoft v5.2 software).

[3] = system: PDO4; experiment: cell viability in patient-derived CRC organoids PDO4; assay type: cell-based, human; settings: Fig. 3e, replicates
Protocol: as §1

[4] = system: KAP^2D cells; experiment: SA-β-Gal senescence staining and senescence markers in CRC cells and organoids; assay type: cell-based, mouse; settings: 5 days
Protocol: SA-β-Gal staining was carried out on sections of snap-frozen tumor tissues. The samples were fixed with 0.5% glutaraldehyde solution (in PBS pH 7.4) for 15 min at room temperature and then washed once with PBS and twice with 1 mM MgCl2 in PBS pH 5.5 (5 min each, at room temperature). Subsequently, the samples were incubated with X-Gal solution (2.45 mM X-Gal, 5 mM K3Fe(CN)6, 5 mM K4Fe(CN)6 and 1 mM MgCl2 in PBS pH 5.5) at 37 °C overnight protected from light. Upon staining, the samples were washed three times with PBS (5 min each), fixed with 4% formalin in PBS for 30 min and again washed with PBS (5 min each, at room temperature).
Immunofluorescence staining on cells and organoids was performed on glass coverslips or tissue culture chambers (Sarstedt). Organoids were plated in medium containing 10% Matrigel or Cultrex BME. The cultures were fixed with 4% paraformaldehyde and stained with specific antibodies and DAPI (Vector Labs). All used antibodies and dilutions are listed in the Nature Portfolio Reporting Summary. For analyzing DNA synthesis, the Molecular Probes Click-iT EdU Alexa Fluor 555 kit was used 24 h after EdU incorporation with DAPI counterstaining. SA-β-Gal staining of cells was performed in cell culture dishes (cells) or tissue culture chambers (organoids) after fixation with 0.5% glutaraldehyde as described above. […]

[5] = cell viability in healthy human colon organoids SCC321; assay type: cell-based; settings: male, human, replicates
Protocol: Primary tumor material was chopped, washed in ice-cold medium and transferred into basic medium (Supplementary Table 17), supplemented with 2.5 mg ml^−1 collagenase II (Thermo Fisher Scientific), 2.5 mg ml^−1 collagenase XI (Sigma-Aldrich), 1 mg ml^−1 Dispase II (Sigma-Aldrich), 100 µg ml^−1 DNase I and 10.5 µM Y-27632 dihydrochloride (Invitrogen). Tumor digestion was performed at 37 °C and stopped by adding medium containing 10% FBS. The mixture was centrifuged for 5 min at 300g. Red blood cells were removed with ACK lysing buffer (Thermo Fisher Scientific; 5 min at room temperature) and the pellet was resuspended in medium. Approximately 1,000 cells were resuspended and plated in 50 µl of Cultrex RGF BME, type 2 (R&D Systems). The ascites material was pelleted by centrifugation at 300g and washed three times with ice-cold PBS. Human CRC organoids were cultured in human CRC medium (Supplementary Table 17) at 37 °C and 7% CO2. Within the first week, the medium was supplemented with 10.5 µM Y-27632 dihydrochloride (Invitrogen). The human colon organoids (SCC311 and SCC321) were purchased from Sigma-Aldrich and cultured in human colon medium (Supplementary Table 17) at 37 °C and 7% CO2. They were derived from participants with the following sex and age: […].
as §1

[6] = full blood analysis of mice treated for 4 days or 10 weeks (Sysmex KX-21N); assay type: in vivo, mouse; settings: for Hemoglobin / MCV / MCH / MCHC: individual animals; for Hemoglobin: ED Fig. 10a; for MCV: ED Fig. 10b; for MCH: ED Fig. 10c; for MCHC: ED Fig. 10d; for Hematocrit (%): mice
From the text: We conducted a daily treatment of wild-type mice with 2015 or carrier for either 4 days or 10 weeks and subsequently quantified leukocytes, platelets and erythrocytes. Furthermore, we determined the hematocrit and the hemoglobin concentration and calculated routinely used red blood cell indices (mean corpuscular volume (MCV), mean corpuscular hemoglobin (MCH) and mean corpuscular hemoglobin concentration (MCHC)). […] No mice were excluded during treatment studies. […] GFP imaging of tumors was performed using a Hamamatsu imaging system. For quantification of compounds in the murine plasma, 20 μl of tail-vein blood was diluted with 80 μl of heparin solution, before 200 μl of ice-cold acetonitrile with a defined internal standard was added. The samples were sonicated and centrifuged and the supernatant was subjected to liquid chromatography-mass spectrometry quantification. Full blood analyses were performed with the Sysmex KX-21N hematology analyzer.

Row | Compound | MK2^T334 phosphorylation (in words) [1] | Cell viability (%) ([2]; 0,5 µM, 5 µM) | Cell viability (%) ([2]; 0,25 µM, 25 µM) | Cell viability (%) ([2]; 1 µM) | Cell viability (%) ([3]; 0,5 µM, 5 µM) | Cell viability (%) ([3]; 0,25 µM, 25 µM) | Cell viability (%) ([3]; 1 µM) | viability at 25 µM ([3]; Homo sapiens, 0,25 µM) [%] | viability at 1 µM ([3]; Homo sapiens, 1 µM) [%] | other results
1 | O=C(NCCN1CCOCC1)c1ccc2c(c1)C(=O)c1ccc(Nc3ccc(F)c(NC(=O)c4ccccc4)c3)cc1CC2 [Compound 1639] | reduced MK2^T334 phosphorylation | 95.85% and 89.27% | 102.83% and 96.93% and 77.02% | 104.30% and 89.98% and 81.04% | 53.06% and 53.55% | 68.57% and 69.02% | 67.76% and 68.24% | 67.4 | 66.9 | viability at 5 µM ([3]; Homo sapiens, 0,5 µM): 50.2%
2 | CNC(=O)c1ccc2c(c1)C(=O)c1ccc(Nc3ccc(F)c(NC(=O)C4CC4)c3)cc1CC2 [Compound 2015] | strongly reduced | 16.61% and 12.02% | 73.65% and 55.49% | 16.85% and 11.03% | 13.84% and 14.01% | 62.38% and 62.93% | 11.63% and 11.83% | 60 | 11.2 | viability at 1 µM ([2]; Homo sapiens, 1 µM): 12.7%; senescence (SA-β-Gal, p16^Ink4a, HMGA2) (in words) [4]: clear senescence phenotype; viability at 25 µM ([5]; healthy human colon organoids SCC321, 2015 0,25 µM, ED Fig. 10g): 105%; viability at 5 µM ([5]; healthy human colon organoids SCC321, 2015 0, ED Fig. 10g): 109%; viability at 1 µM ([5]; healthy human colon organoids SCC321, 2015 1 µM, ED Fig. 10g): 86.9%; blood cell fractions versus carrier (in words) ([6]; 4 days or 10 weeks daily treatment): no relevant differences; Hemoglobin ([6]; mice treated 10w): 14.6 g/dL and 14.3 g/dL and 13.7 g/dL and 14.0 g/dL; MCV ([6]; mice treated 10w): 52.0 fL and 52.3 fL and 51.4 fL and 51.7 fL; MCH ([6]; mice treated 10w): 14.2 pg and 14.0 pg and 13.8 pg; MCHC ([6]; mice treated 10w): 27.4 g/dL and 26.8 g/dL and 26.9 g/dL and 26.6 g/dL; Hemoglobin ([6]; mice treated 4d): 14.7 g/dL and 15.4 g/dL and 14.6 g/dL and 14.5 g/dL; MCV ([6]; mice treated 4d): 52.3 fL and 51.8 fL and 51.9 fL and 51.5 fL; MCH ([6]; mice treated 4d): 14.5 pg and 14.4 pg and 13.7 pg; MCHC ([6]; mice treated 4d): 27.7 g/dL and 26.4 g/dL and 26.6 g/dL; Hematocrit (%) ([6]; 10w treatment): 53.3% and 53.4% and 50.9% and 52.6%; Hematocrit (%) ([6]; 4d treatment): 53.1% and 55.5% and 55.2% and 54.6%
